Assay results: PMC3578829, “A Small Molecule (Pluripotin) as a Tool for Studying Cancer Stem Cell Biology: Proof of Concept” (PLoS ONE, 2013)
Entries after “also recorded” stand apart in the source; their conditions may differ.

What was measured:
Raf = settings: cited from earlier work
PKC = settings: cited from earlier work
COLO 205 = experiment: Soft agar cloning assay; type: cell-based; settings: 1.25 µM SL0101 for 24 hrs prior to cloning, evaluated 7 days later, all plating densities
Description: The soft agar colony formation assay has been previously described. In brief, for each treatment condition, triplicate 35 mm^2 dishes were coated with a 1 ml base layer containing 0.7% agarose (Seaplaque: FMC Corp., Rockland, ME). On day 0, cells were dissociated, washed once in growth medium, and subcultured by layering various cell concentrations in 0.5 ml culture medium containing 0.3% agarose onto the base coat. Culture dishes were transferred to a refrigerator (4°C) for 15 min, to room temperature for 10 min, and then to culture incubators. An upper layer of 0.5 ml culture medium was applied on day 0. Cultures were stained with MTT (1 mg/ml) for visualization and imaging at multiple time intervals (day 7 and 14). Cumulative counts of colonies (diameters, >60 µm) and cumulative volumes of CFU (diameters >120 µm) were determined with an Omnicon FAS-II (Bausch & Lomb, Rochester, NY) following calibration with an Omnicon test plate 3 and polystyrene microspheres embedded in soft agar matrix. The evaluable region of each culture dish (35 contiguous fields equivalent to 51% of the cell layer culture volume) was analyzed. Selective scoring of viable cell groups was achieved by adjustment of the instrument detection threshold to exclude images of nonstained cellular material and debris. The data was analyzed with Lotus Symphony software.

MEK = settings: cited from earlier work

## CC(=O)O[C@@H]1[C@@H](OC(C)=O)[C@@H](O)[C@H](Oc2c(-c3ccc(O)cc3)oc3cc(O)cc(O)c3c2=O)O[C@H]1C [SL0101]
Raf
  Activity against Raf: no activity
PKC
  Activity against PKC: no activity
COLO 205
  Colony formation (≥60 µm) in soft agar vs control: increased colony formation; also recorded: Statistically significant increases in colony formation
MEK
  Activity against MEK: no activity
